Assay results published in US11185511B2, “Antifungal topical composition and methods of treatment” (priority 2013, dated 2021).
Entries after “also recorded” stand apart in the source; their conditions may differ. Read-outs that look alike come from different tables or passages of the source.

Experiments:
[1] = tested on: Saccharomyces cerevisiae NOD 24; experiment: Chequerboard titration test (MIC, FICI) against Saccharomyces cerevisiae NOD 24; assay type: cell-based; settings: for Fold reduction in MIC of drug when combined with PHMB: S cerevisiae NOD 24, FIG. 2; for MIC when combined with PHMB: S cerevisiae NOD 24, MIC of the antifungal in combination with PHMB; for FICI / Type of interaction: S cerevisiae NOD 24, antifungal combined with PHMB; for MIC: Saccharomyces cerevisiae, NOD24
Description: (§1) In vitro susceptibility of a clinical isolate of Candida albicans, Saccharomyces cerevisiae NOD 24 and S cerevisiae EBY 100 to the combination of the antifungal agent and PHMB was assessed using chequerboard assay. Interaction between the drugs and PHMB, formation of nanoparticles and cellular uptake was also assessed.
(§2) Yeast inoculum was prepared by picking five colonies from 24 hrs grown culture in SGA and mixing in RPMI 1640 with MOPS. The optical density of the mixture was adjusted spectrophotometrically to 1 which is equivalent to 3×10^7 Colony Forming Units of yeast/mi. This suspension was further diluted in RPMI 1640 with MOPS to give final inoculum size of 0.5×10^4 CFU/ml.
(§3) Chequer board titration test was carried out in sterile 96-well plates as per CLSI recommended standard procedure to test the antifungal effect of drugs alone and in combination with PHMB. RPMI 1640 medium buffered with MOPS was used as test medium. Dilutions of drug was prepared the test medium if the stock was made in DMSO and in case of stocks made in water further dilutions of drug was in water itself. Tested concentrations were: nystatin 0.000039 mg/ml to 0.02 mg/ml, amphotericin B 0.032 mg/ml to 0.0000625 mg/ml, berberine 0.01 mg/ml to 0.00002 mg/ml, ketoconazole 0.032 mg/ml to 0.0000625 mg/ml and terbinafine 0.16 mg/ml to 0.00031 mg/ml. Growth control and sterility control was present in all plates. All the plates were prepared in triplicates.
(§4) The plates were sealed with paraffin foil to prevent evaporation and kept at 37° C. for C albicans and 30° C. for S cererevisiae. MIC was recorded visually, aided with Powerwave 340 universal microplate spectrophotometer (Biotek) after 24 hours for C albicans and S cerevisiae NOD 24. […] MIC was defined as the lowest concentration at which there is no visible growth. FICI was used to analyse the drug interactions in vitro and was calculated using the equation given below: […]

[2] = tested on: Saccharomyces cerevisiae EBY 100; experiment: Chequerboard titration test (MIC, FICI) against Saccharomyces cerevisiae EBY 100; assay type: cell-based; settings: for Fold reduction in MIC of drug when combined with PHMB: S cerevisiae EBY100, FIG. 1; for MIC when combined with PHMB: S cerevisiae EBY 100, MIC of the antifungal in combination with PHMB; for FICI / Type of interaction: S cerevisiae EBY 100, antifungal combined with PHMB; for MIC: Saccharomyces cerevisiae
Description: as §1, §2, §3, §4

Candida albicans = experiment: Chequerboard titration test (MIC, FICI) against clinical isolate of Candida albicans; assay type: cell-based; settings: for Fold reduction in MIC of drug when combined with PHMB: FIG. 3; for MIC when combined with PHMB: MIC of the antifungal in combination with PHMB; for FICI / Type of interaction: antifungal combined with PHMB
Description: as §1, §2, §3, §4

[3] = tested on: Candida albicans, Saccharomyces cerevisiae NOD 24 and S cerevisiae EBY 100; settings: chequerboard assay, organism not specified
Description: as §1, §3, §4
Wilcoxon signed rank test was used to statistically analyse changes in MICs of antifungals when combined with PHMB. P value less than 0.05 was considered significant. Statistical analysis was done using SPPSS version 2.0 software.

[4] = Particle size by dynamic light scattering (DLS); assay type: physicochemical; settings: for Average size of particles (DLS): combined with PHMB in the ratio 1:3, PBS
Description: Dynamic light scattering (DLS) was used to estimate size of complexes formed. It is based on the principle that by measuring scattered light from particles in motion their size can be determined. […] Particle size was determined using Zetasizer S (Malvern instruments, UK).

[5] = S cerevisiae NOD 24, PHMB concentration when combined with the labelled drug
[6] = S cerevisiae NOD 24, RPMI 1640 with MOPS, 30° C., 24 hours
[7] = S cerevisiae EBY 100, PHMB concentration when combined with the labelled drug
[8] = S cerevisiae EBY 100, RPMI 1640 with MOPS, 30° C., 48 hours
[9] = PHMB concentration when combined with the labelled drug
[10] = RPMI 1640 with MOPS, 37° C., 24 hours
[11] = combined with PHMB in the ratio 1:3
[12] = S cerevisiae NOD 24, PHMB concentration when combined with the labelled drug, read-out: MIC of PHMB with antifungals
[13] = S cerevisiae NOD 24, RPMI 1640 with MOPS, 30° C., 24 hours, read-out: MIC of antifungals alone
[14] = EBY100, S cerevisiae EBY 100, RPMI 1640 with MOPS, 30° C., 48 hours, read-out: MIC of antifungals alone
[15] = PHMB concentration when combined with the labelled drug, read-out: MIC of PHMB with antifungals
[16] = RPMI 1640 with MOPS, 37° C., 24 hours, read-out: MIC of antifungals alone

Row | Compound | Fold reduction in MIC of drug when combined with PHMB [1] [fold] | MIC when combined with PHMB ([1]; 30° C., 24 hours) [µg/mL] | MIC of PHMB with antifungals [1, 5] [µg/mL] | MIC of antifungals alone [1, 6] [µg/mL] | FICI [1] | Type of interaction [1] | Fold reduction in MIC of drug when combined with PHMB [2] [fold] | MIC when combined with PHMB ([2]; 30° C., 48 hours) [µg/mL] | MIC of PHMB with antifungals [2, 7] [µg/mL] | FICI [2] | Type of interaction [2] | Fold reduction in MIC of drug when combined with PHMB (Candida albicans) [fold] | MIC when combined with PHMB (Candida albicans; 37° C., 24 hours) [µg/mL] | FICI (Candida albicans) | Type of interaction (Candida albicans) | Interaction with PHMB (synergy), in words [3] | Nanoparticles with PHMB observed or not (DLS) [4, 11] | MIC [1, 12] [µg/mL] | MIC [1, 13] [µg/mL] | MIC (Candida albicans; [15]) [µg/mL] | further results
1 | C[C@@H]1[C@H](O)[C@@H](C)/C=C/C=C/C=C/C=C/C=C/C=C/C=C/[C@H](O[C@@H]2O[C@H](C)[C@@H](O)[C@H](N)[C@@H]2O)C[C@@H]2O[C@](O)(C[C@@H](O)C[C@@H](O)[C@H](O)CC[C@@H](O)C[C@@H](O)CC(=O)O[C@H]1C)C[C@H](O)[C@H]2C(=O)O [Amphotericin B] | 16 | 0.25 | 0.5 | 4 | 0.56 | No interaction (>0.5 but ≤4 is ‘no interaction’) | 4 | 4 | 0.5 | 0.5 | Synergistic (FICI≤0.5 is ‘synergistic effect’) | 2 | 0.5 | 0.53 | No interaction (>0.5 but ≤4 is ‘no interaction’) | Synergistic effect | Nanoparticles were not detected |  |  |  | MIC of antifungals alone [2, 8]: 16 µg/mL; Type of interaction ([2]; listed as amphotericin B): synergy; MIC of PHMB with antifungals (Candida albicans; [9]): 0.031 µg/mL; MIC of antifungals alone (Candida albicans; [10]): 1 µg/mL
2 | COc1ccc2cc3[n+](cc2c1OC)CCc1cc2c(cc1-3)OCO2 [Berberine] | 16 | 0.56 |  |  | 0.56 | No interaction (>0.5 but ≤4 is ‘no interaction’) | 2 | 25 |  | 0.75 | No interaction (>0.5 but ≤4 is ‘no interaction’) | 2 | 31.25 | 0.53 | No interaction (>0.5 but ≤4 is ‘no interaction’) |  | Nanoparticles were observed | 0.5 | 50 | 0.031 | MIC ([2]; EBY100, S cerevisiae EBY 100, PHMB concentration when combined with the labelled drug, read-out: MIC of PHMB with antifungals): 0.5 µg/mL; MIC [2, 14]: 50 µg/mL; Share of particles around 22.2±1.5 nm ([4]; combined with PHMB 1:3): 64.5%; Average size of particles (DLS) [4]: 22.22±1.591 nm; Average size of particles (DLS) ([4]; listed as berberine): around 22.2±1.5 nm
3 | CC(=O)N1CCN(c2ccc(OCC3COC(Cn4ccnc4)(c4ccc(Cl)cc4Cl)O3)cc2)CC1 (stereo not shown) [Ketoconazole] | 4 | 1 |  |  | 0.5 | Synergistic (FICI≤0.5 is ‘synergistic effect’) | 4 | 0.31 |  | 0.263 | Synergistic (FICI≤0.5 is ‘synergistic effect’) | 4 | 1 | 0.281 | Synergistic (FICI≤0.5 is ‘synergistic effect’) | Strong synergism; also recorded: Synergistic effect | Nanoparticles were observed | 0.5 | 16 | 0.062 | MIC ([2]; EBY100, 48 h, read-out: MIC of antifungals alone): 1.25 µg/mL; MIC (Candida albicans; [16]): 4 µg/mL; Polydispersity index ([4]; combined with PHMB 1:3): > 1; Share of particles of size less than 10 nm ([4]; combined with PHMB 1:3): less than 10%; Peak 1 Average size (DLS) [4, 11]: 1.15±0.017; Peak 2 Average size (DLS) [4, 11]: 5.88±0.71; Peak 3 Average size (DLS) [4, 11]: 498.9±65.2
4 | C[C@@H]1[C@H](O)[C@@H](C)/C=C/C=C/CC/C=C/C=C/C=C/C=C/C(O[C@H]2O[C@H](C)[C@@H](O)[C@H](N)[C@@H]2O)CC2O[C@](O)(CC(O)C(O)CCC(O)CC(O)CC(O)CC(=O)O[C@H]1C)CC(O)C2C(=O)O (stereo partly shown) [Nystatin] | 4 | 0.625 | 0.5 | 2.5 | 0.75 | No interaction (>0.5 but ≤4 is ‘no interaction’) | 2 | 2.5 | 0.062 | 0.53 | No interaction (>0.5 but ≤4 is ‘no interaction’) | 2 | 2.5 | 1 | No interaction (>0.5 but ≤4 is ‘no interaction’) |  | Nanoparticles were not detected |  |  |  | MIC of antifungals alone [2, 8]: 5 µg/mL; MIC of PHMB with antifungals (Candida albicans; [9]): 0.5 µg/mL; MIC of antifungals alone (Candida albicans; [10]): 5 µg/mL
5 | CN(C/C=C/C#CC(C)(C)C)Cc1cccc2ccccc12 [Terbinafine] | 16 | 2.5 |  |  | 0.312 | Synergistic (FICI≤0.5 is ‘synergistic effect’) | 8 | 2.5 |  | 0.14 | Synergistic (FICI≤0.5 is ‘synergistic effect’) | 4 | 1 | 0.5 | Synergistic (FICI≤0.5 is ‘synergistic effect’) | Strong synergism; also recorded: Synergistic effect |  | 0.062 | 4 | 0.5 | MIC [2, 14]: 20 µg/mL; MIC (Candida albicans; [16]): 4 µg/mL
